# Like-named read-outs stand apart in the source and are kept apart here.
# Columns and labels:
# [1] = tested on: Proteus mirabilis A9554; assay: MIC, serial two-fold agar dilution, aerobic bacteria; type: cell-based; conditions: Nutrient agar (Eiken)
# [2] = tested on: Neisseria meningitidis A21496; assay: as above; type: cell-based; conditions: GC medium (Eiken)
# [3] = tested on: C. perfringens A9635; assay: microbe, parasite or virus in culture; type: cell-based, Clostridium perfringens
# [4] = tested on: C. perfringens A9635; assay: microbe, parasite or virus in culture; type: cell-based; conditions: Clostridium perfringens
# [5] = Stability in solution; type: physicochemical
# [6] = tested on: two anaerobic and one aerobic organisms; assay: Bactericidal potential (in words); type: cell-based
# [7] = tested on: Bacteroides fragilis A20930; assay: microbe, parasite or virus in culture
# [8] = tested on: Bacteroides fragilis A20935; assay: microbe, parasite or virus in culture
# [9] = tested on: Acidoaminococcus fermentans ATCC 25085; assay: microbe, parasite or virus in culture
# [10] = tested on: Veillonella parvula ATCC 17745; assay: microbe, parasite or virus in culture; conditions: ATCC17745
structure (smiles),measurement,setting,value
COC(=O)C1C(C)OC2(C)CC(=O)C3OC12OC(C(C)/C=C(C)/C=C/C(=O)C1=C(O)CN(C)C1=O)C3C (stereo not shown) [Bu-2313A],MIC,[1],> 100 µg/mL
same,MIC,[2],3.1 µg/mL
same,MIC,"[3]; Clostridium perfringens, A9635, read-out: MIC in GAM agar",0.1 µg/mL
same,MIC in GAM agar,[3]; inoculum size 7 × 10^6 cell/ml,0.1 µg/mL
same,MIC,"[4]; A9635, read-out: MIC in GAM broth, inoculum size […] 10^5 cell/ml",0.1 µg/mL
same,MIC,"[4]; A9635, read-out: MIC in GAM broth, inoculum size […] 10^6 cell/ml",100 µg/mL
same,stability,[5]; acidic solution,stable
same,stability,"[5]; alkaline solution, N/10 NaOH, room temperature, overnight",inactivated
same,antibacterial action,[6],bacteriostatic rather than bactericidal
same,MIC,[7],0.2 µg/mL
same,MIC,[8],0.2 µg/mL
same,MIC,[9],0.2 µg/mL
same,MIC,[10],0.2 µg/mL
